Consider two molecules from publication PMC11043318, “Quantification of biochemical PSA dynamics after radioligand therapy with [^177Lu]Lu-PSMA-I&T using a population pharmacokinetic/pharmacodynamic model” (EJNMMI Physics, 2024).

Molecules are shown by their SMILES. Values joined by “and” are separate entries in the source; they are usually repeats but may differ in a detail not shown here. Identical values can stand only once.

In data set [1] the test system is serum prostate-specific antigen (PSA). As to the kind of experiment: Tumor exposure (AUC) threshold for PSA response, linear regression. It counts as in vivo, human. Particulars: Bayesian estimated tumor AUC of first two cycles. An excerpt: As an exploratory analysis, the final population PKPD model was used to assess a potential tumor exposure threshold required to achieve treatment response. The individually (Bayesian) estimated area under the curve (AUC) based on the first two treatment cycles was related to the change in PSA (%) for each patient. Since PSA is a continuous response measure and there is no defined moment to determine response, two endpoints for response were considered: nadir PSA and the last measured PSA value after the first two treatment cycles. A linear regression was performed to assess the relationship and was subsequently used to define tumor AUC thresholds required to achieve treatment response (≥ 50% decrease in PSA). Formal statistical testing was not possible, since individual (Bayesian) estimates of tumor exposure cannot be considered independent variables.

Data set [2] shares this test system. As to the kind of experiment: Population PKPD model of PSA dynamics after therapy. In kind it is in vivo, human. The conditions noted are these: estimate (RSE%). The source says: Data from patients treated in our hospital with [^177Lu]Lu-PSMA-I&T between September 2019 and January 2023 were collected for population PK model development. This retrospective data collection was approved by the Institutional Review Board of the Netherlands Cancer Institute (IRBd21288). Baseline patient characteristics were collected, such as age, body weight, height and serum creatinine clearance. In addition, individual PSA concentrations were collected and used as input for the PD model. As pre-treatment PSA value, only the last observation prior to [^177Lu]Lu-PSMA-I&T treatment (< 6 weeks) was included in the analysis, to avoid taking into account PSA changes due to other previous treatments. For the same reason, PSA observations after the last [^177Lu]Lu-PSMA-I&T administration were collected up to start of a new treatment.
A sequential modelling approach was used for PKPD model development, where an additional compartment was considered to describe PSA concentrations over time. Baseline PSA concentrations were estimated as a typical population value with an estimated IIV on this population baseline value. […] For Edrug, a linear function, an Emax function and a sigmoid Emax model were evaluated (see Eqs. 9–11, respectively).9 Edrug=kD∗Ctumor 10 Edrug=EMAX∗Ctumor/EC50+Ctumor 11 Edrug=EMAX∗Ctumorγ/EC50γ+Ctumorγ where kD is a drug-induced effect, Ctumor is the estimated concentration in the tumor compartment (taking into account radioactive decay), EMAX is the maximal drug induced effect of [^177Lu]Lu-PSMA-I&T on PSA, EC50 is the [^177Lu]Lu-PSMA-I&T concentration at which half of the maximum drug-induced effect on PSA occurs and γ is a hill coefficient (that was both estimated and fixed during model development).
Therefore, a delay of the PD effect after administration of [^177Lu]Lu-PSMA-I&T (Edelayed) was evaluated using an effect compartment with a linear drug effect (Eq. 8) on the PSA compartment. This delayed effect was assessed both solely as well as additional to the direct effect (Edrug). […]

The conditions of data set [3]: cited from earlier work. An excerpt:
Though differences are small, these might be caused by different treatment intervals (two-week instead of six-week interval) for most patients.

A short description of data set [4]: Population pharmacokinetic model from post-administration SPECT/CT data. In kind it is in vivo, human.
For data set [5] the following is noted: cited from earlier work. An excerpt: Comparison of rate constants for drug transfer between different compartments is hampered by absolute radioactivity amounts being relatively small in tumors compared to organs (due to volume differences between these compartments). […] Though differences are small, these might be caused by different treatment intervals (two-week instead of six-week interval) for most patients.
This is another data set of the same source.

The mark [6] stands for this setting: fraction of tumor uptake rate in cycle 1, estimate (RSE%).
Setting [7] is: population PK model, covariate exponent, estimate (RSE%).
The mark [8] stands for this setting: population PK model, estimate (RSE%).

Take `O=C([O-])CC[C@H](NC(=O)N[C@@H](CCCCNC(=O)CCCCCCC(=O)NCCCC[C@@H](NC(=O)[C@@H](Cc1ccccc1)NC(=O)[C@@H](Cc1ccc(O)c(I)c1)NC(=O)CC[C@H](C(=O)[O-])N1CCN(CC(=O)[O-])CCN(CC(=O)[O-])CCN(CC(=O)[O-])CC1)C(=O)[O-])C(=O)[O-])C(=O)[O-].[177Lu+3].[H+].[H+].[H+].[H+].[H+]` [[^177Lu]Lu-PSMA-I&T]: in data set [1], the “Threshold tumor AUC for ≥ 50% decrease in PSA, last measured PSA after first two cycles” value is listed as 1188 MBq·h/mL and the “Threshold tumor AUC for ≥ 50% decrease in PSA, nadir PSA as outcome” value is listed as 709.5 MBq·h/mL. For the same molecule, in data set [2] (first-order delay to effect compartment), the “Rate constant effect compartment (ke0)” value was 0.00128 (13.1%) h^−1. In addition, in data set [2] (linear effect from effect compartment on PSA), the “Delayed drug-induced effect (kD, delay)” value was 0.0000328 (17.4%) L·day^−1·MBq^−1. The “Direct drug-induced effect (kD, direct)” value in data set [2] (linear effect of tumor concentration on PSA elimination) is 0.00335 (40.1%) L·day^−1·GBq^−1. For the same molecule, in data set [3], the “Average tumor absorbed dose, fourth cycle relative to first cycle” value was 68%; the “Average tumor absorbed dose, second cycle relative to first cycle” value was 94%; the “Average tumor absorbed dose, third cycle relative to first cycle” value was 77%. Moreover, in data set [3] (n = 5–15 patients per cycle), the “Average tumor absorbed dose, first cycle” value is given as 3.5 Gy/GBq; the “Average tumor absorbed dose, fourth cycle” value was 2.4 Gy/GBq; the “Average tumor absorbed dose, second cycle” value is on record as 3.3 Gy/GBq; the “Average tumor absorbed dose, third cycle” value is reported as 2.7 Gy/GBq. Also, in data set [4] (all 76 patients), the “Tumor uptake rate in cycle 2 compared to cycle 1” value was 73% and 73.1%; the “Tumor uptake rate in cycle 3 compared to cycle 1” value was 50% and 49.8%; the “Tumor uptake rate in cycle 4–7 compared to cycle 1” value is 44% and 43.6%. Further, in data set [4] (cycle effect tested on k12), the “Salivary gland uptake in cycle three compared to cycle one” value is listed as 98.1% and the “Salivary gland uptake in cycle two compared to cycle one” value was 84.6%. Further, the “Estimated half-life, tumors” value in data set [4] (decay-corrected data) is reported as roughly 46 h. In data set [4] (setting [6]), the “Cycle 2 on k14 (fractional change)” value is 0.731 (8.1%), the “Cycle 3 on k14 (fractional change)” value is 0.498 (11.3%) and the “Cycle 4–7 on k14 (fractional change)” value was 0.436 (11.6%). Further, the “Increase of tumor uptake rate with a two-times higher tumor volume” value in data set [4] (from power covariate 1.08 on k14) stood at 2.11 fold. The “Tumor uptake rate in cycle 2 compared to cycle 1, excluding '4 × 6' patients” value in data set [4] (only '2 × 2 – repeated after twelve weeks' scheme) is reported as 82.9%. In addition, the “k10 (renal excretion rate constant from central compartment)” value in data set [4] (population PK model, 76 mCRPC patients, ~7.4 GBq per cycle, SPECT/CT, estimate (RSE%)) was 0.253 (5.2%) h^−1. The “k12 (uptake rate central to salivary glands)” value in data set [4] (population PK model, 76 mCRPC patients, estimate (RSE%)) is listed as 0.0105 (9.2%) h^−1. The molecule further gave a Renal clearance in data set [4] (population PK model, mCRPC patients) of 2.61 L/h. In data set [4] (setting [7]), the “Tumor volume on k12 (power covariate function)” value is recorded as 0.0910 (30.0%) and the “Tumor volume on k14 (power covariate function)” value is reported as 1.08 (7.5%). In data set [4] (setting [8]), the “k13 (uptake rate central to kidneys)” value was 0.0321 (6.9%) h^−1, the “k14 (uptake rate central to tumors)” value is 0.00967 (9.9%) h^−1, the “k15 (central to remaining tissue)” value is recorded as 0.275 (6.8%) h^−1 and the “k21 (salivary glands to central)” value is reported as 0.0629 (6.3%) h^−1. Moreover, in data set [4] (setting [8]), the “k31 (kidneys to central)” value is 0.0625 (5.4%) h^−1, the “k41 (tumors to central)” value is 0.0150 (3.4%) h^−1 and the “k51 (remaining tissue to central)” value was 0.0247 (6.5%) h^−1. Also, the “Estimated half-life, organs-at-risk” value in data set [4] (salivary glands and kidneys, decay-corrected data) is reported as “approximately 11 h”. For the same molecule, the “BMAX compartment 2 (maximum binding capacity, salivary glands)” value in data set [4] (saturable uptake into salivary glands, estimate (RSE%)) is 134 (15.5%) MBq.

As to `O=C(O)CC[C@H](NC(=O)N[C@@H](CCCCNC(=O)[C@H](Cc1ccc2ccccc2c1)NC(=O)[C@H]1CC[C@H](CNC(=O)CN2CCN(CC(=O)O)CCN(CC(=O)O)CCN(CC(=O)O)CC2)CC1)C(=O)O)C(=O)O` [[^177Lu]Lu-PSMA-617, metal not drawn], in data set [5], the “Initial volume of distribution” value is 22 L and the Reported clearance is reported as 2.04 L/h. Moreover, the Excretion rate in data set [5] (population PK model) was 0.288 h⁻¹.
